Laboratory results: ChEMBL document CHEMBL1149598, “Synthesis of neutral and cationic tripyridylporphyrin-D-galactose conjugates and the photoinactivation of HSV-1” (Bioorg Med Chem, 2007)

Columns and labels:
[1] = Photostability assessed after irradiation with 50 mW/cm^2 white light for 3 mins; assay type: ADME; settings: 0.05 h
[2] = (§1) Phototoxicity against 50 mW/cm^2 white light irradiated Vero cells assessed as viable cells pretreated at 0.1 uM after 48 hrs by MTT assay; assay type: cell-based; settings: chlorocebus sabaeus, Vero cells; read-out: Activity
Human alphaherpesvirus 1 [3] = test: Inhibition of HSV1 infected Vero cells treated at 0.02 uM assessed virus yield after 16 hrs of irradiated with 50 mW/ cm^2 white light for 15 mins; assay type: functional; settings: Human alphaherpesvirus 1, Vero, light or radiation study
[4] = (§2) Phototoxicity against 50 mW/cm^2 white light irradiated Vero cells assessed as viable cells pretreated at 0.05 uM after 48 hrs by MTT assay; assay type: cell-based; settings: chlorocebus sabaeus, Vero cells; read-out: Activity
Human alphaherpesvirus 1 [5] = test: (§3) Virucidal effect against HSV1 pretreated at 0.02 uM after 5 mins of irradiation with 50 mW/cm^2 white light; assay type: functional; settings: for inhibition at 0.02 µM: Human alphaherpesvirus 1, light or radiation study
Human alphaherpesvirus 1 [6] = test: Inhibition of HSV1 infected Vero cells treated at 0.02 uM assessed virus yield after 4 hrs of irradiated with 50 mW/ cm^2 white light for 15 mins; assay type: functional; settings: Human alphaherpesvirus 1, Vero, light or radiation study
Human alphaherpesvirus 1 [7] = test: Virucidal activity against HSV1 at 0.02 uM; assay type: functional; settings: for inhibition at 0.02 µM: Human alphaherpesvirus 1
[8] = (§4) Phototoxicity against 50 mW/cm^2 white light irradiated Vero cells assessed as viable cells pretreated at 1.0 uM after 48 hrs by MTT assay; assay type: cell-based; settings: chlorocebus sabaeus, Vero cells; read-out: Activity
[9] = Photostability assessed after irradiation with 50 mW/cm^2 white light for 10 mins; assay type: ADME
[10] = Photostability assessed after irradiation with 50 mW/cm^2 white light for 15 mins; assay type: ADME; settings: 0.25 h
Human alphaherpesvirus 1 [11] = test: Inhibition of HSV1 infected Vero cells treated at 0.02 uM assessed virus yield after 2 hrs under dark condition; assay type: functional; settings: Human alphaherpesvirus 1, Vero
Human alphaherpesvirus 1 [12] = test: as §3; assay type: functional; settings: for inhibition at 0.02 µM: Human alphaherpesvirus 1, light or radiation study; remark: listed apart in the source
[13] = Photostability assessed after irradiation with 50 mW/cm^2 white light for 1 min; assay type: ADME
Human alphaherpesvirus 1 [14] = test: Inhibition of HSV1 infected Vero cells treated at 0.02 uM assessed virus yield irradiated with 50 mW/ cm^2 white light for 15 mins; assay type: functional; settings: Human alphaherpesvirus 1, Vero, light or radiation study, 0.25 h
Human alphaherpesvirus 1 [15] = test: Inhibition of HSV1 infected Vero cells treated at 0.02 uM assessed virus yield under dark condition; assay type: functional; settings: Human alphaherpesvirus 1, Vero
[16] = (§5) Phototoxicity against 50 mW/cm^2 white light irradiated Vero cells assessed as viable cells pretreated at 0.01 uM after 48 hrs by MTT assay; assay type: cell-based; settings: chlorocebus sabaeus, Vero cells; read-out: Activity
Human alphaherpesvirus 1 [17] = test: Inhibition of HSV1 infected Vero cells treated at 0.02 uM assessed virus yield after 16 hrs under dark condition; assay type: functional; settings: Human alphaherpesvirus 1, Vero
[18] = (§6) Phototoxicity against 50 mW/cm^2 white light irradiated Vero cells assessed as viable cells pretreated at 2.5 uM after 48 hrs by MTT assay; assay type: cell-based; settings: chlorocebus sabaeus, Vero cells; read-out: Activity
Human alphaherpesvirus 1 [19] = test: Inhibition of HSV1 infected Vero cells treated at 0.02 uM assessed virus yield after 4 hrs under dark condition; assay type: functional; settings: Human alphaherpesvirus 1, Vero
[20] = (§7) Phototoxicity against 50 mW/cm^2 white light irradiated Vero cells assessed as viable cells assessed as viable cells pretreated at 0.5 uM after 48 hrs by MTT assay; assay type: cell-based; settings: chlorocebus sabaeus, Vero cells; read-out: Activity
[21] = Photostability assessed after irradiation with 50 mW/cm^2 white light for 5 mins; assay type: ADME
Human alphaherpesvirus 1 [22] = test: Inhibition of HSV1 infected Vero cells treated at 0.02 uM assessed virus yield after 2 hrs of irradiated with 50 mW/ cm^2 white light for 15 mins; assay type: functional; settings: Human alphaherpesvirus 1, Vero, light or radiation study
Vero [23] = test: as §1; assay type: cell-based; settings: chlorocebus sabaeus, vero, 48 h, 0.1 µM
Vero [24] = test: as §2; assay type: cell-based; settings: chlorocebus sabaeus, vero, 48 h, 0.05 µM
Vero [25] = test: as §4; assay type: cell-based; settings: chlorocebus sabaeus, vero, 48 h, 1 µM
Vero [26] = test: as §5; assay type: cell-based; settings: chlorocebus sabaeus, vero, 48 h, 0.01 µM
Vero [27] = test: as §6; assay type: cell-based; settings: chlorocebus sabaeus, vero, 48 h, 2.5 µM
Vero [28] = test: as §7; assay type: cell-based; settings: chlorocebus sabaeus, vero, 48 h, 0.5 µM

Activity [1] [%]	Activity [9] [%]	Activity [10] [%]	Activity [13] [%]	Activity [21] [%]	SMILES	viability at 48 h, 0.1 µM [2] [%]	viability at 48 h, 0.05 µM [4] [%]	inhibition at 0.02 µM (Human alphaherpesvirus 1 [5]) [%]	inhibition at 0.02 µM (Human alphaherpesvirus 1 [7]) [%]	viability at 48 h, 1 µM [8] [%]	inhibition at 0.02 µM (Human alphaherpesvirus 1 [12]) [%]	viability at 48 h, 0.01 µM [16] [%]	viability at 48 h, 2.5 µM [18] [%]	viability at 48 h, 0.5 µM [20] [%]	other results
98	88	83	100	97	O=C(OC[C@H]1OC(O)[C@H](O)[C@@H](O)[C@H]1O)c1ccc(-c2c3nc(c(-c4ccncc4)c4ccc([nH]4)c(-c4ccncc4)c4nc(c(-c5ccncc5)c5ccc2[nH]5)C=C4)C=C3)cc1 (some centres undefined)	92.3	98.4	44.5	28.6	27.2	85.6	108	4.4	55.5	inhibition at 0.02 µM (Human alphaherpesvirus 1 [3]): 95.7%; inhibition at 0.02 µM (Human alphaherpesvirus 1 [6]): 93.6%; inhibition at 0.02 µM (Human alphaherpesvirus 1 [11]): 0%; inhibition at 0.02 µM (Human alphaherpesvirus 1 [14]): 71.1%; inhibition at 0.02 µM (Human alphaherpesvirus 1 [15]): 0%; inhibition at 0.02 µM (Human alphaherpesvirus 1 [17]): 45.8%; inhibition at 0.02 µM (Human alphaherpesvirus 1 [19]): 0%; inhibition at 0.02 µM (Human alphaherpesvirus 1 [22]): 79.2%
98	94	93	98	98	CC1(C)O[C@H]2[C@@H](O1)[C@@H](COC(=O)c1ccc(-c3c4nc(c(-c5ccncc5)c5ccc([nH]5)c(-c5ccncc5)c5nc(c(-c6ccncc6)c6ccc3[nH]6)C=C5)C=C4)cc1)O[C@@H]1OC(C)(C)O[C@@H]12	–	–	–	–	–	–	–	–	–	Activity (Vero [23]): 93.9%; Activity (Vero [24]): 96.4%; Inhibition (Human alphaherpesvirus 1 [5]): 36.4%; Inhibition (Human alphaherpesvirus 1 [7]): 27.7%; Activity (Vero [25]): 14.4%; Inhibition (Human alphaherpesvirus 1 [12]): 78.9%; Activity (Vero [26]): 100.8%; Activity (Vero [27]): 6.4%; Activity (Vero [28]): 36.4%
99	92	87	99	96	O=C(O)c1ccc(-c2c3nc(c(-c4ccncc4)c4ccc([nH]4)c(-c4ccncc4)c4nc(c(-c5ccncc5)c5ccc2[nH]5)C=C4)C=C3)cc1 [PORPHIRIN]	90.6	95.7	52.9	8.9	39.7	90.5	105	11.4	76.6	–

SMILES	Activity [1] [%]	Activity [9] [%]	Activity [10] [%]	Activity [13] [%]	Activity [21] [%]	viability at 48 h, 0.1 µM [2] [%]	viability at 48 h, 0.05 µM [4] [%]	inhibition at 0.02 µM (Human alphaherpesvirus 1 [5]) [%]	inhibition at 0.02 µM (Human alphaherpesvirus 1 [7]) [%]	viability at 48 h, 1 µM [8] [%]	inhibition at 0.02 µM (Human alphaherpesvirus 1 [12]) [%]	viability at 48 h, 0.01 µM [16] [%]	viability at 48 h, 2.5 µM [18] [%]	viability at 48 h, 0.5 µM [20] [%]	other results
C[n+]1ccc(-c2c3nc(c(-c4cc[n+](C)cc4)c4ccc([nH]4)c(-c4cc[n+](C)cc4)c4nc(c(-c5ccc(C(=O)O)cc5)c5ccc2[nH]5)C=C4)C=C3)cc1.[I-].[I-].[I-]	98	98	97	98	98	96.7	98.6	50	16.7	76.6	63.3	110	56.3	89.2	–
